Experiment [1] relates to Microorganisms of the genus Salmonella. Briefly: Detection of salmonellae, all strains of Example 1. The experiment is classed as cell-based. The conditions noted are these: alkylglycoside in place of Tween 20, Example 1. How it is done:
A stock solution of the enzyme substrate 5-bromo-6-chloro-3-indoxyl caprylate (magenta-C8) is made in a DMSO-type solvent. A volume of this stock solution which makes it possible to obtain a final substrate concentration of 360 mg/L is then added into flasks respectively containing Tween 20 (final concentration 6 g/L), n-octyl-β-D-glucopyranoside (OG) to final concentrations of 0.7, 2 and 6 g/L, and n-dodecyl-β-D-maltoside (DM) to the same concentrations. The different solutions are agitated and the volumes are introduced into supercooled agar media (chromID® Salmonella media).
Microorganisms of the genus Salmonella from the Applicant's collection were seeded on each of the aforementioned media in accordance with the three-dial technique from bacterial suspensions calibrated to 0.5 McF. The strains were selected for their low to average expression of esterase activity, giving low to average violet coloration intensities on the chromID® Salmonella medium marketed by bioMérieux (under the references 43621 and 43629).
The dishes were incubated for 24 h at 37° C. Then the colonies which formed were examined visually after 24 h of incubation. The coloration intensities were recorded.

The subject of experiment [2] is P. aeruginosa and A. baumannii. Briefly: Detection of P. aeruginosa and A. baumannii, all strains of Example 2. The experiment is classed as cell-based. How it is done: Two stock solutions at 25 g/L of ALDOL™ 470-nonanoate (ALDOL 470-C9, developed by Biosynth AG, Rietlisstrasse 4,9422 Staad, Switzerland) and of ALDOL™ 495-nonanoate (ALDOL 495-C9, also developed by Biosynth AG, Rietlisstrasse 4,9422 Staad, Switzerland) are made in a DMSO-type organic solvent. Then a volume corresponding to a final concentration of enzyme substrates of 200 mg/L is added into flasks containing respectively: Tween 20 (final concentration in the medium of 6 g/L), and DM (final concentrations of 0.7, 2 and 6 g/L). The different flasks are vigorously agitated, then all of the contents are added into the supercooled agar media: TSA (trypticase soy agar) base.
Bacteria from the Applicant's collection were seeded on each of the aforementioned media in accordance with the three-dial technique from bacterial suspensions calibrated to 0.5 McF. The dishes were incubated for 24 h at 37° C. and the colonies formed were analysed visually. Thus, the colorations and the coloration intensities were recorded.

Consider `CCCCCCCCO[C@@H]1O[C@H](CO)[C@@H](O)[C@H](O)[C@H]1O` [OG, n-octyl-β-D-glucopyranoside], for which the “Esterase activity detection sensitivity in Salmonella” value in experiment [1] is reported as “improve the esterase activity detection sensitivity in Salmonella”.

Consider `CCCCCCCCCCCCO[C@@H]1O[C@H](CO)[C@@H](O[C@H]2O[C@H](CO)[C@@H](O)[C@H](O)[C@H]2O)[C@H](O)[C@H]1O` [DM, n-dodecyl-β-D-maltoside], for which, in experiment [2] (replacement of the Tween 20 at 6 g/L by DM at the same concentration, whatever the enzyme substrate), the “Detection of the strains tested” value is on record as “detect all of the strains tested”. Besides, the “Detection of the esterase activity of the microorganisms” value in experiment [2] (substitution of Tween 20 by DM, Example 2) is recorded as “improves the detection of the esterase activity of the microorganisms”. Besides, the “Esterase activity detection sensitivity in Salmonella” value in experiment [1] is listed as “improve the esterase activity detection sensitivity in Salmonella”.

Source of the values: patent publication US10077464B2, “Micro-organism detection medium comprising at least one alkyl(thio)glycoside” (Biomérieux, priority 2012, dated 2018).
